# Experimental data as given in patent publication US11390584B2, “1-cyano-pyrrolidine compounds as USP30 inhibitors” (Mission Therapeutics Limited, priority 2015, dated 2022).
# pIC50: −log10 of the molar value.
# Target: USP30 (Homo sapiens (Human), UniProt Q70CQ3)
# Assay: USP30 biochemical FP or FI IC50 assay
# Settings: read-out: IC50 range
# Description: In Vitro USP30 FP Inhibition Assay
# USP30 Biochemical IC50 Assay
# (§1) Dilution plates were prepared at 21 times the final concentration (2100 μM for a final concentration of 100 μM) in 50% DMSO in a 96-well polypropylene V-bottom plate (Greiner #651201). A typical 8-point dilution series would be 100, 30, 10, 3, 1, 0.3, 0.1, 0.03 μM final. Reactions were performed in duplicate in black 384 well plates (small volume, Greiner 784076) in a final reaction volume of 21 μl. Either 1 μl of 50% DMSO or diluted compound was added to the plate. USP30 was diluted in reaction buffer (40 mM Tris, pH 7.5, 0.005% Tween 20, 0.5 mg/ml BSA, 5 mM—beta-mercaptoethanol) to the equivalent of 0.05 µl/well and 10 μl of diluted USP30 was added to the compound. Enzyme and compound were incubated for 30 min at room temp. Reactions were initiated by the addition of 50 nM of TAMRA labelled peptide linked to ubiquitin via an iso-peptide bond as fluorescence polarisation substrate. Reactions were read immediately after addition of substrate and following a 2 hr incubation at room temperature. Readings were performed on a Pherastar Plus (BMG Labtech). λ Excitation 540 nm; λ Emission 590 nm.
# In Vitro USP30 FI Inhibition Assay
# USP30 Biochemical Fluorescence Intensity IC50 Assay
# as §1, with “0.001 μl/well” for “0.05 µl/well”, “Ubiquitin-Rhodamine 110 (U-555; Boston Biochem) at a final concentration” for “50 nM”, “100 nM.” for “TAMRA labelled peptide linked to ubiquitin via an iso-peptide bond as fluorescence polarisation substrate.”, “h” for “hr”, “487” for “540”, “535” for “590”
# Chain of USP30 (Q70CQ3 57-517): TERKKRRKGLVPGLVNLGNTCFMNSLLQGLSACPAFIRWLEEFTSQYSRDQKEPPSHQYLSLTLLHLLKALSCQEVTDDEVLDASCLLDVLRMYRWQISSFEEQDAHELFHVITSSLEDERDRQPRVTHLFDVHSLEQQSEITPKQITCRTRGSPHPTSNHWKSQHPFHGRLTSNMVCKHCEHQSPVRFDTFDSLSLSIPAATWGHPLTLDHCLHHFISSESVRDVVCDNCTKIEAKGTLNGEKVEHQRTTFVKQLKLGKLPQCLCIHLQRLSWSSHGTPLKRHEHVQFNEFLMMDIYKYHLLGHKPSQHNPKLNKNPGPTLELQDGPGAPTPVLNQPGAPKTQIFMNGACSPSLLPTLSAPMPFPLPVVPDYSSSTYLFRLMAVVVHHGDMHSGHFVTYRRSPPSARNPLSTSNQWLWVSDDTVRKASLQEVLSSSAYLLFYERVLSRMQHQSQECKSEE
row,Substance,pIC50
1,(R)-3-(1H-benzo [d]imidazol-2-yl)- N-(1-cyano pyrrolidin-3- yl)azetidine-1- carboxamide [Example 134],6.00 to 7.00
2,(R)-N-(1-cyano pyrrolidin-3-yl)- 3-phenoxy azetidine- 1-carboxamide [Example 133],6.00 to 7.00
3,N-(1-cyanopyrrolidin-3-yl)-6-(4- phenoxypiperidin-1- yl)nicolinamide [Example 22],6.00 to 7.00
4,"N-((R)-1-cyano pyrrolidin-3-yl)- ((2S,6R)-2,6- dimethyl morpholino)- 5-fluoroiso nicotinamide [Example 140]",6.00 to 7.00
5,"rac-(3aR, 6aR)-1-(3-phenyl-1II- pyrazole-5- carbonyl)hexahydropyrrolo[3,4- b]pyrrole-5(1H)-carbonitrile [Example 52]",6.00 to 7.00
